In PubChem BioAssay AID624129 (Sanford-Burnham Center for Chemical Genomics, 2012):
Calls of active or inactive are those of the source. The rule behind the calls is not given here.

Target: C-X-C chemokine receptor type 6 (Homo sapiens) (UniProt O00574)
Test: potency against CXCR6 with APJ panel – cell-based, beta-arrestin, DiscoveRx, uHTS hits, dose response (AID 624129)
Details: CXCR6 beta-arrestin (DiscoveRx) antagonist cell assay; for outcome: CXCR6, dose range 1; for inhibition: CXCR6, run 2, dose range 1, at 79 µM (top of the series)
[1] = CXCR6, dose range 1, mean IC50 across replicates

Sequence of C-X-C chemokine receptor type 6 (Homo sapiens) (O00574 whole entry, looked up): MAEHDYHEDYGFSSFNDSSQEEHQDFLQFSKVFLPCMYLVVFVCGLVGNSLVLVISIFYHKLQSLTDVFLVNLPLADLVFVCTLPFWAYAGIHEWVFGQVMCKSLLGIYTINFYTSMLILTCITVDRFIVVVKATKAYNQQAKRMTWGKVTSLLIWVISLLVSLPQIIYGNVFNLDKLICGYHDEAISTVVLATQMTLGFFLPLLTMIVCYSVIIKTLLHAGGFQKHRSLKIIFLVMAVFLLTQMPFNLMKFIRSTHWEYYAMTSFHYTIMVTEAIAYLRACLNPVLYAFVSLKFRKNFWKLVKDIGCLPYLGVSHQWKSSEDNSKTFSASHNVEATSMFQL

| outcome | IC50 [1] [µM] | IC50 (CXCR6, run 1, dose range 2) [µM] | inhibition [%] | IC50 (CXCR6, run 2, dose range 2) [µM] | Compound |
| --- | --- | --- | --- | --- | --- |
| inactive | 24 | 23.8 | 111 | 24.3 | O=[N+]([O-])c1cc(-c2ncccn2)c([N+](=O)[O-])s1 |
| inactive | 14.3 | 12.5 | 67.6 | 16.1 | COc1cccc(-c2nnc(NC(=O)c3ccc(Cl)s3)o2)c1 |
| inactive | 22.4 | 13.8 | 108 | 31 | O=C(C=Cc1ccccn1)c1ccccc1O |
| inactive | 11.7 | 11.5 | 109 | 11.9 | Cc1ccc(S(=O)(=O)c2ccc([N+](=O)[O-])cn2)cc1 |
| inactive | 12.9 | 10.4 | 85.8 | 15.4 | O=C(NC(=S)N1CCN(c2ccc(C(F)(F)F)cc2[N+](=O)[O-])CC1)c1cccs1 |
| inactive | 14.5 | 13.9 | 113 | 15.2 | Cc1cc(C)cc(N2C(=O)CC(Sc3nnnn3-c3ccccc3)C2=O)c1 (stereo not given) |
| inactive | 14.8 | 14.2 | 111 | 15.3 | Nc1ccccc1C#CC(=O)c1ccccc1 |
| inactive | 21.1 | 11.8 | 107 | 30.4 | FC(F)(F)c1cnc(NNC(=S)Nc2cccnc2)c(Cl)c1 |
| active | 3.33 | 3.33 | -12.1 | > 79 | C/C(=N\Nc1nc2ccccc2[nH]1)c1ccccn1 |
| inactive | 24 | 26.3 | 70.4 | 21.6 | CCOC(=O)C1=C(C)NC2=C(C(=O)CC(c3cccs3)C2)C1c1cccs1 (stereo not given) |
| inactive | 18.8 | 17.9 | 111 | 19.6 | CCc1nc2c(OCCC3CCCCC3)cccn2c1N(C)C(=O)c1ccc(C)cc1 |
| inactive | 18.3 | 17.5 | 113 | 19.1 | O=C1C=CC(=O)N1c1ccc(N2CCCCC2)cc1 |
| inactive | 14.1 | 12.2 | 103 | 16 | N#CC(C#N)=C1C=CC=CN1/C(=C\c1ccco1)C(=O)c1ccc(-c2ccccc2)cc1 |
| inactive | 47.2 | 61 | 96.9 | 33.4 | C=CCSC1=N/C(=C\c2cc(OCC)c(OC(C)=O)c([N+](=O)[O-])c2)C(=O)S1 |
| inactive | 11.4 | 10.5 | 79.2 | 12.3 | CCCCC(=O)NC(=S)Nc1ccccc1C(=O)Nc1ccccc1 |
| inactive | 14.6 | 13.9 | 81.6 | 15.3 | Cc1[nH]n2c(=O)cc(-c3ccc([N+](=O)[O-])cc3)nc2c1-c1ccccc1 |
| inactive | 28.5 | 31.4 | 89.3 | 25.7 | Cc1ccc(NC(=O)c2ccc(Nc3c([N+](=O)[O-])cc([N+](=O)[O-])cc3[N+](=O)[O-])cc2)cc1 |
| inactive | 28.4 | 35 | 78.8 | 21.8 | COc1cc(/C=C/c2ccc3cccc(OC)c3n2)c(OC(C)=O)c([N+](=O)[O-])c1 |
| inactive | 11.2 | 11.3 | 60.7 | 11 | Cn1c(=O)n(C)c2cc([N+](=O)[O-])c(N3CCN(C(=O)c4cccc(Cl)c4)CC3)cc21 |
| inactive | 13.5 | 13.1 | 74.3 | 14 | COc1cccc(C(=O)NC(=S)N2CCN(c3ccc(C(F)(F)F)cc3[N+](=O)[O-])CC2)c1 |
| inactive | 13.3 | 12.9 | 111 | 13.8 | CC(C)[C@H](NC(=O)OC(C)(C)C)c1nnc(S(=O)(=O)Cc2c(F)cccc2Cl)o1 |
| active | 5.58 | 5.58 | 36.4 | > 79 | NC(=O)c1ccccc1NCC(=O)c1ccc(Cl)cc1 |
| inactive | 27.6 | 27.6 | 95.7 | > 79 | O=[N+]([O-])c1ccc(N/N=C/c2sc(N3CCOCC3)nc2-c2ccccc2)c(S(=O)(=O)Nc2ccccc2Cl)c1 |
| inactive | 14.1 | 13.8 | 112 | 14.3 | CCCNC(=O)c1nnsc1S(=O)(=O)c1ccc(Cl)cc1 |

| outcome | IC50 [1] [µM] | IC50 (CXCR6, run 1, dose range 2) [µM] | inhibition [%] | IC50 (CXCR6, run 2, dose range 2) [µM] | Compound |
| --- | --- | --- | --- | --- | --- |
| inactive | 22 | 23.6 | 108 | 20.3 | CCCC(=O)OCCNc1cc(SCCC(=O)OC)c2nonc2c1[N+](=O)[O-] |
| inactive | 27.8 | 25 | 110 | 30.5 | O=C1c2cccc3c([N+](=O)[O-])ccc(c23)C(=O)N1Cc1cccnc1 |
| inactive | 49.2 | 49.2 | 81 | > 79 | CCOc1cc(/C=C2\C(=O)N(c3cccc(C(F)(F)F)c3)C(=O)c3ccccc32)ccc1O |
| inactive | 22.3 | 16.7 | 72.2 | 27.8 | COc1cc(C(=O)NCC(c2ccco2)N2CCc3ccccc3C2)cc(OC)c1OC (stereo not given) |
| inactive | 12.1 | 11 | 111 | 13.1 | CCc1ccc(NC(=O)c2nc(S(=O)(=O)Cc3ccccc3)ncc2Cl)cc1 |
| inactive | 26 | 8.84 | 68.8 | 43.2 | O=C(NC(=S)N(CCc1ccccc1)CCc1ccccc1)c1ccco1 |
| inactive | 16.3 | 17.3 | 68.1 | 15.4 | Cc1cc(O)ccc1NC(=S)NC(=O)c1cncc(Br)c1 |
| inactive | 30.4 | 26.5 | 109 | 34.3 | COc1ccc2nc(-n3c(O)c(C4=c5ccccc5=NC4=O)[nH]c3=S)sc2c1 |
| inactive | 19.6 | 17.7 | 92.1 | 21.6 | O=C1c2cccc3c([N+](=O)[O-])ccc(c23)C(=O)N1c1ccc(Cl)cn1 |
| inactive | 13.1 | 11.5 | 112 | 14.7 | Cc1cccc(CS(=O)(=O)c2ncc(Cl)c(C(=O)NCc3ccccc3)n2)c1 |
| inactive | 14.7 | 14.3 | 112 | 15.2 | COc1ccc(/C=C2/CCC(CN3CCOCC3)C2=O)cc1 (stereo not given) |
| inactive | 17.7 | 17.6 | 112 | 17.9 | CCCSc1cc(NCCOC(=O)CCC)c([N+](=O)[O-])c2nonc12 |
| inactive | 14.4 | 17.9 | 99.5 | 10.9 | CCOC(=O)C1CCCN(c2c(C(=O)c3ccccc3)cnc3ccc(OC)cc23)C1 (stereo not given) |
| inactive | 33 | 21.2 | 114 | 44.8 | Cc1ccc(NS(=O)(=O)c2cc([N+](=O)[O-])ccc2NNC(=S)Nc2cc(C)ccc2C)c(C)c1 |
| inactive | 47.3 | 36.1 | 70.9 | 58.4 | COc1cc(C2C(C#N)=C(N)Oc3n[nH]c(-c4cccs4)c32)cc(OC)c1O (stereo not given) |
| inactive | 30.2 | 30.4 | 86.8 | 29.9 | O=C(NNc1ccc([N+](=O)[O-])cc1[N+](=O)[O-])c1ccco1 |
| inactive | 16.3 | 15.4 | 107 | 17.2 | COC(=O)c1ccc(NC(=O)c2nc(S(=O)(=O)Cc3cccc(C)c3)ncc2Cl)cc1 |
| inactive | 42.2 | 42.2 | 23.1 | > 79 | COC(=O)CSc1[nH]c2ccc(Br)cc2c1[N+](=O)[O-] |
| inactive | 11.5 | 10.4 | 75 | 12.6 | O=C(NNC(=O)c1cc(-c2ccccc2)nn1-c1ccccc1)c1ccccc1 |
| inactive | 20.5 | 26.4 | 109 | 14.7 | Cc1cccc(NC(=S)NNc2ncc(C(F)(F)F)cc2Cl)c1 |
| inactive | 21.5 | 19.5 | 108 | 23.5 | O=C1C=CC2C3C(=O)N(c4ccccc4)C(=O)C3C1N2Cc1ccccc1 (stereo not given) |
| inactive | 30.7 | 23.3 | 84.1 | 38.2 | COc1cc(/C=C(\C#N)c2nc(-c3cc4ccccc4oc3=O)cs2)ccc1O |
| inactive | 14.7 | 13.5 | 111 | 15.9 | COc1cccc2sc(N(CCCN(C)C)C(=O)CCS(=O)(=O)c3ccccc3)nc12 |
| inactive | 16.9 | 15.7 | 109 | 18 | Cc1cccc(CS(=O)(=O)c2ncc(Cl)c(C(=O)NCc3ccc4c(c3)OCO4)n2)c1 |
